From paper PMC7251927, “Impact of Acute and Chronic Amyloid-β Peptide Exposure on Gut Microbial Commensals in the Mouse” (Frontiers in Microbiology, 2020)

Columns and labels:
[1] = Gut transition time of orally administered TAMRA-labeled Aβ; type: in vivo, mouse; details: 10 μg oral; for Gut segment in which TAMRA fluorescence was detected (2 cm sections, 1 = stomach to 12 = rectal): one animal, technical duplicates
Description: (§1) Animals were lightly anesthetized with Isoflurane and 10 μg of peptide or solvent (10 mM NH4OH) administered slowly into the oral cavity. Mice were kept in manual fixation up to ingestion of the fluid to prevent aspiration.
(§2) Animals were deeply anesthetized with isoflurane and sacrificed by decapitation. For microbiome determination, feces pellets close to the rectum were taken. For assessing fluorescence after feeding of TAMRA-labeled Aβ, the whole gut was placed in ice cold isotonic sodium chloride to prevent further peristalsis movement. Segments of 2 cm length were then chopped starting from the stomach, the content collected by longitudinal opening and stored on ice until further use.
After oral application of TAMRA-labeled Aβ or NH4OH as control and sacrifice of the animals 2, 4, or 24 h later, chyme samples were diluted with 500 μl ice cold PBS, incubated for 5 min and centrifuged. Fluorescence was measured by using 50 μl of the supernatant in duplicates (Exc 540 nm and Em 580 nm, FLUOstar Optima, BMG Labtech GmbH, Ortenberg, Germany) at intervals of 1 min over a period of 1 h at 37°C with shaking before every measurement. The mean of the values of the measurements between 15 and 45 min was used to calculate the difference between the TAMRA-labeled Aβ-treated animals and solvent-treated control animals.
FIGURE 2 Stability and time-dependent localization of per os administered Aβ peptides in the murine gastrointestinal tract. (A) TAMRA-labeled Aβ peptide was incubated in two different concentrations [high (H): 0.025 μM; low (L): 0.005 μM] with PBS-diluted gastric content of wild type mice for 2 h at 37°C. Solvent of the peptide was used as a negative control (–). Additionally, samples with PBS instead of chyme were incubated as described (buffer). Proteins were separated on PAA gel and transferred to nitrocellulose. […] (B) To assess the passage of orally administered Aβ peptides, wild type or 5xFAD mice were fed with 10 μg of TAMRA-labeled Aβ peptides and sacrificed at indicated time points. TAMRA-dependent fluorescence was determined in the chyme of 2 cm gut sections numbered from 1 (oral end = stomach) to 12 (rectal section). Values are presented as measured difference between the TAMRA-Aβ-treated animals and solvent-treated control animals (one animal per time point, technical duplicates).

Enterobacteriaceae = experiment: Family-specific cultivation, CFU on Petrifilm plates selective for Enterobacteriaceae; type: cell-based, mouse; details: 2 μM, plates 20 h at 37°C
Description: (§3) For assessing toxic effects of Aβ on specific microbial families, freshly collected feces was suspended and incubated with 2 μM peptide solution as described above. Afterward, feces suspensions were diluted with 0.9% sodium chloride solution for plating 1 ml on 3M^TM-Petrifilm plates specific for Enterobacteriaceae and Lactobacillaceae (3M Deutschland GmbH, Neuss, Germany). Plates were incubated for 20 h at 37°C. CFU were counted and normalized to samples from the same donor mouse incubated with scrambled peptide.
(§4) Viability was measured and calculated in percent of scrambled peptide treated samples (n = 13 animals per group,♂ = 6–7, ♀ = 6–7). […] Subsequently, aliquots of further diluted bacteria suspension were plated on Schaedler agar and incubated anaerobically for 48 h at 37°C. Number of colony forming units (CFU) of samples treated with scrambled peptide control were set to 100% (n = 7 animals per group; ♂ = 3, ♀ = 4). […] Datapoints for individual normalized measurements are shown in each graph (*p < 0.05; **p < 0.01).

Enterococcus faecalis = system: Enterococcus faecalis; parameters: method as in Soscia et al., 2010; details: single microbial species; ref Soscia et al., 2010; cited from earlier work
[2] = system: murine fecal microorganisms; experiment: Bacterial viability assay (BacTiter Glo) on diluted fecal samples; type: cell-based, mouse; details: 2 μM peptide, 10 min incubation, luminescence, n = 13 animals
Description: Freshly collected fecal pellets were suspended in isotonic sodium chloride solution (0.9%, 100 μl/mg) using a hand-held electric stirrer (Xenox, Fähren, Germany). Aliquots of 50 μl were supplemented with 5 μl of peptide solution in 0.4 mM NH4OH buffered in PBS. After 10 min incubation at room temperature under careful mixing for every 2 min, 20 μl of this suspension were added to 4 ml of thioglycollate bouillon (Becton Dickinson GmbH, Heidelberg, Germany) and kept for overnight at […]. The following day, 1 μl of the diluted fecal suspension was spread on Schaedler agar plates (Becton Dickinson GmbH, Heidelberg, Germany) and incubated for 48 h anaerobically (Anoxomat, Mart Microbiology B.V, Drachten, Netherlands). Lastly, colony forming units (CFU) were counted and normalized to controls from the same donor mouse incubated with scrambled peptide.
After incubation of diluted feces samples with Aβ peptide or scrambled control for plating (see above), additional 1:100 dilutions were prepared and viability measured by using the BacTiter Glo assay as indicated by the vendor (Promega, Mannheim, Germany). Relative luminescence was measured and normalized to controls from the same donor mouse incubated with scrambled peptide.
Viability was measured and calculated in percent of scrambled peptide treated samples (n = 13 animals per group,♂ = 6–7, ♀ = 6–7). […]

Candida albicans = system: Candida albicans; parameters: method as in Soscia et al., 2010; details: single microbial species; ref Soscia et al., 2010; cited from earlier work
Lactobacillaceae = experiment: Family-specific cultivation, CFU on Petrifilm plates selective for Lactobacillaceae; type: cell-based, mouse; details: 2 μM, plates 20 h at 37°C, n = 10–11
Description: as §3, §4

gut microbiome = experiment: 16S rDNA sequencing of the gut microbiome after oral peptide application; type: in vivo, mouse; details: female wild type mice, 10 μg peptide oral once, feces
Description: as §1, §2

| Substance | Gut segment in which TAMRA fluorescence was detected (2 cm sections, 1 = stomach to 12 = rectal) ([1]; 5xFAD transgenic mouse, 2 h after treatment) | Gut segment in which TAMRA fluorescence was detected (2 cm sections, 1 = stomach to 12 = rectal) ([1]; 5xFAD transgenic mouse, 4 h after treatment) | TAMRA fluorescence signal in chyme of gut segments ([1]; wild type and 5xFAD mice, 24 h after treatment, any sample) | Gut segment in which TAMRA fluorescence was detected (2 cm sections, 1 = stomach to 12 = rectal) ([1]; wild type mouse, 4 h after treatment) | Enterobacteriaceae CFU vs scrambled peptide control (Enterobacteriaceae; fecal material from transgenic 5xFAD mice, n = 10–11, p = 0.09) | Enterobacteriaceae CFU vs scrambled peptide control (Enterobacteriaceae; fecal material from wild type mice, n = 10–11) | Antimicrobial effect on Enterococcus faecalis (Enterococcus faecalis) | Viability of fecal microorganisms vs scrambled peptide treated samples ([2]; fecal samples from transgenic 5xFAD mice) | Viability of fecal microorganisms vs scrambled peptide treated samples ([2]; fecal samples from wild type mice) | Antimicrobial effect on Candida albicans (Candida albicans) | Lactobacillaceae CFU vs scrambled peptide control (Lactobacillaceae; fecal material from transgenic 5xFAD mice) | Lactobacillaceae CFU vs scrambled peptide control (Lactobacillaceae; fecal material from wild type mice) | Beta diversity, Bray–Curtis dissimilarity (CAP), difference vs scrambled Aβ-fed animals (gut microbiome) | Beta diversity, Jaccard distance based ordination (CAP), vs scrambled Aβ-fed animals (gut microbiome) |
| --- | --- | --- | --- | --- | --- | --- | --- | --- | --- | --- | --- | --- | --- | --- |
| TAMRA-labeled Aβ42: TAMRA-labeled Aβ peptide (AnaSpec) used for detecting gut transition of Aβ | 11 | 11 | No signal could be detected | 11 |  |  |  |  |  |  |  |  |  |  |
| human Aβ1–42 [Aβ42] |  |  |  |  | non-significant reduction | significantly reduced | antimicrobial effect | no such toxic effect | significantly reduce viability | antimicrobial effect | no significant effects | significantly reduced | not significant | significantly differed |
